Experimental findings from US4130647A, “Methods for treating congestive heart failure and ischemic heart disease” (priority 1977, dated 1978) are described below.

The test system of data set [1] is patients with chronic left sided congestive heart failure. Kind of data set: Adverse effects of trimazosin (Example 3). The format is in vivo, human. How it is done:
The patients then received in a double-blind, randomized study trimazosin or placebo for six weeks. Eight patients received one placebo capsule three times daily for weeks one and two, two placebo capsules three times daily for weeks three and four, and three placebo capsules three times daily for weeks five and six of the double-blind period. Seven patients received one 50 mg. trimazosin capsule three times daily for weeks one and two, two 50 mg. trimazosin capsules three times daily for weeks three and four, and three 50 mg. trimazosin capsules three times daily for weeks five and six of the double-blind period. One patient (patient number five on trimazosin) received one 50 mg. trimazosin capsule three times daily for 32 days. […] The patients were seen by one of the investigators, questioned for symptoms, and given a physical examination in the baseline period, at the end of two weeks of single-blind placebo, and at the end of weeks one, two, three, four, five, and six on double-blind medication. A standard 12-lead electrocardiogram and PA and lateral chest roentgenograms were taken in the baseline period, at the end of two weeks of single-blind placebo, and at the end of three weeks and six weeks on double-blind medication.

The subject of data set [2] is forearm veins of patients with congestive heart failure. Kind of data set: Forearm venous capacitance by occlusion plethysmography after trimazosin (Example 2). The format is in vivo, human. The protocol:
On the day of hemodynamic studies, diuretics and other vasodilators were withheld but maintenance digitalis doses were given in order to obtain a reasonably steady hemodynamic state. Procainamide was given to the one patient who had been taking it chronically. Right heart catheterization was performed using a triple lumen Swan-Ganz catheter which was inserted percutaneously via an antecubital or femoral vein and positioned with its tip in the pulmonary artery and the proximal lumen in the right atrium [Swan, et al,. N. Engl. J. Med., 283, 447 (1970)]. A brachial artery was cannulated with a short teflon catheter inserted over an 18-guage thin walled needle. Catheters were connected to P23Db Statham pressure transducers and pressures recorded on a Hewlett-Packard multichannel physiological recorder. Transducers were positioned at the mid-chest level with the patient supine, and all measurements were made in this position. Heart rate was monitored from the electrocardiogram. Cardiac outputs were measured by the dye-dilution method using indocyanine green injected into the pulmonary artery and sampled from the brachial artery through a Gilford densitometer connected to the recorder. Forearm venous capacitance was measured by occlusion plethysmography employing a Whitney mercury-in-rubber resistance guage [Cohen, et al., Clin. Sci., 30, 267 (1966) and Mason, et al., Circulation, 32, 756 (1965)]. For this determination, the forearm was elevated and suspended in a cradle. The venous occluding cuff was inflated to 30 mm. Hg. and forearm girth allowed to equilibrate over 2-3 minutes. The change in forearm girth at this point was taken as a measure of venous capacitance.
Hemodynamic measurements were made before and at hourly intervals for 4 hours after administration of trimazosin. […] Systemic vascular resistance was calculated as the difference between means systemic arterial and right atrial pressures divided by cardiac output. Pulmonary vascular resistance was calculated as mean pulmonary arterial pressure divided by cardiac output. […]

A further data set relates to adrenergic. Kind of data set: Adrenergic blocking activity of trimazosin. An excerpt: This observation might have important clinical implications since other vasodilators may be contraindicated in patients with compensated ischemic heart disease who may develop tachycardia and increased myocardial oxygen requirements [Sonnenblick, et al., N. Engl. J. Med., 285, 688 (1971)] in response to vasodilators.

Data set [3] relates to patients with chronic left sided congestive heart failure. Kind of data set: Improvement of symptoms and roentgenographic pulmonary venous congestion, trimazosin (Example 3). The data set is classed as in vivo, human. An excerpt:
After baseline measurements, all 16 patients received one capsule of single-blind placebo three times daily for two weeks. The patients then received in a double-blind, randomized study trimazosin or placebo for six weeks. Eight patients received one placebo capsule three times daily for weeks one and two, two placebo capsules three times daily for weeks three and four, and three placebo capsules three times daily for weeks five and six of the double-blind period. Seven patients received one 50 mg. trimazosin capsule three times daily for weeks one and two, two 50 mg. trimazosin capsules three times daily for weeks three and four, and three 50 mg. trimazosin capsules three times daily for weeks five and six of the double-blind period. One patient (patient number five on trimazosin) received one 50 mg. trimazosin capsule three times daily for 32 days. Their trimazosin dose was not increased after two weeks of this dose because their standing systolic blood pressure was 104/70 mm. Hg.
The patients were seen by one of the investigators, questioned for symptoms, and given a physical examination in the baseline period, at the end of two weeks of single-blind placebo, and at the end of weeks one, two, three, four, five, and six on double-blind medication. […]
The data listed in Tables 1-4 were analyzed using Student's t test for independent means. […]

For the compound `COc1cc2c(N)nc(N3CCN(C(=O)OCC(C)(C)O)CC3)nc2c(OC)c1OC` [trimazosin, 2-hydroxy-2-methylpropyl 4-(4-amino-6,7,8-trimethoxy-2-quinazolinyl)-1-piperazinecarboxylate], the “adverse effects attributed to medication” value in data set [1] (16 patients (trimazosin or placebo)) is recorded as “No adverse effects attributed to medication occurred in any of the 16 patients”. Moreover, in data set [1] (in vivo), the “adverse effects such as systemic lupus erythematosus” value is on record as “has not been associated with adverse effects such as systemic lupus erythematosus” and the reflex tachycardia entry was “does not produce a reflex tachycardia”. Besides, in data set [1] (thirty-second day of trimazosin therapy), the “event in patient number five” value is “acute myocardial infarction with ventricular fibrillation”. In data set [1] (trimazosin 450 mg. daily), the side effects result is given as “without occurrence of any side effects”. Besides, the “increase in forearm venous capacitance” value in data set [2] (2 hours after trimazosin) came to 35%. Also, the forearm venous capacitance in data set [2] (2 hours after trimazosin, before 0.83 ± 0.18) was 1.12 ± 0.22 ml./100 gm. Moreover, the “increase in forearm venous capacitance” value in data set [2] (one patient with normal pulmonary wedge pressure) came out at 50%. Moreover, the adrenergic blocking activity entry in the data set with adrenergic is recorded as “does not possess adrenergic blocking activity”. For the same compound, the “disappearance of pulmonary venous congestion on chest roentgenogram” value in data set [3] (vs. none of eight on placebo, p=0.038) was “Four of the eight patients”. Also, in data set [3] (vs. one of eight on placebo, p=0.020), the “good or excellent improvement in symptoms” value is given as “Six of the eight patients”.
